For one assay, the system named is intestinal cells. The conditions noted are these: cited from earlier work.
The subject of assay [1] is dextran sodium sulphate-induced colitis. The conditions noted are these: mice; daily oral administration; cited from earlier work.
The subject of the next assay is colonic microbiota. Description: In vitro intestinal system simulating the colon of a human infected with C. difficile, after Vancomycin treatment. The conditions noted are these: end of washout period. The source says:
An in vitro intestinal system is used to simulate the colon region in a human infected with C. difficile. The system is inoculated with fresh faecal samples from a healthy individual aged >65 years. The system is run for two weeks as a set up period to stabilise the system. The system is fed daily with a feed solution and with bile acids (primarily taurocholic acid and glycocholic acid). Afterwards, two different interventions are run in parallel for 4 weeks. • Intervention: daily addition of 2′-FL and LNnT (ratio 4:1 by weight) plus an antibiotic (Vancomycin) for seven days, followed by 2′-FL and LNnT (ratio 4:1 by weight) without antibiotic for the next 3 weeks (wash out period), • Control: an antibiotic (Vancomycin) for seven days, followed by no intervention for the next 3 weeks (wash out period). During the antibiotic treatment and washout periods, both the intervention and the control receive the same daily feed including bile acids. At three time points (end of set up period, end of antibiotic treatment, and end of wash out period), the microbiota community and bile acids are measured using 16S sequencing and HPLC-UV method, respectively. The in vitro intestinal system is run as in example 1 except that the intervention is a daily addition of 2′-FL plus an antibiotic (Vancomycin) for seven days, followed by 2′-FL alone for the next 3 weeks (wash out period). The control is as in example b 1. • Control: an antibiotic (Vancomycin) for seven days, followed by no intervention for the next 3 weeks (wash out period).

Regarding `C[C@H](CCC(=O)O)[C@H]1CC[C@H]2[C@@H]3[C@H](O)C[C@@H]4C[C@H](O)CC[C@]4(C)[C@H]3CC[C@]12C` [CDCA, chenodeoxycholic acid], in the assay with intestinal cells, the “permeability of intestinal cells” value is on record as “increased the permeability” and the “release of proinflammatory cytokines” value is recorded as “increased”.
For `C[C@H](CCC(=O)NCCS(=O)(=O)O)[C@H]1CC[C@H]2[C@@H]3[C@@H](O)C[C@@H]4C[C@H](O)CC[C@]4(C)[C@H]3CC[C@]12C` [TUDCA, tauroursodeoxycholic acid], the “severity of dextran sodium sulphate-induced colitis” value in assay [1] is on record as “equally lowered the severity”.
With `C[C@H](CCC(=O)NCC(=O)O)[C@H]1CC[C@H]2[C@@H]3[C@@H](O)C[C@@H]4C[C@H](O)CC[C@]4(C)[C@H]3CC[C@]12C` [GUDCA, glycoursodeoxycholic acid], the “severity of dextran sodium sulphate-induced colitis” value in assay [1] is recorded as “equally lowered the severity”.
For 2′-fucosyllactose [2′-FL], the “colonic bile acid metabolism” value with colonic microbiota is “re-established”. For the same compound, in the assay on colonic microbiota (16S sequencing), the “restoration of the microbiota” value is “restored”. The secondary bile acids entry in the assay on colonic microbiota (HPLC-UV) was “presence of the secondary bile acid deoxycholic acid (DCA)”. Besides, the “primary bile acids (cholic acid (CA) and glyco-chenodeoxycholic acid (GCDCA))” value in the assay with colonic microbiota (HPLC-UV, versus Vancomycin-only control) is recorded as “decrease in primary bile acids”.

Source of the values: patent publication US20220378809A1, “SYNTHETIC COMPOSITION FOR BALANCING THE BILE ACID PROFILE IN THE INTESTINE” (GLYCOM A/S, priority 2019, published 2022).
